Results published in PMC4512239 (Clinical cancer research : an official journal of the …, 2015).
“Also recorded” adds a separate entry of the source.

Test: phase I safety and tolerability
Assay type: in vivo, human

CNC(=O)c1cccc(-c2ccc3c(N4CCOC[C@@H]4C)nc(N4CCOC[C@@H]4C)nc3n2)c1 [AZD2014]
Fatigue, Any grade (Part A 70mg BD solution (N=5)): 3 (60.0) Number (%) of patients | Fatigue, CTCAE grade 1-2 (Part A 70mg BD solution (N=5)): 2 (40.0) Number (%) of patients | Hypokalemia, Any grade (Part A 70mg BD solution (N=5)): 1 (20.0) Number (%) of patients | Hypokalemia, CTCAE grade 1-2 (Part A 70mg BD solution (N=5)): 1 (20.0) Number (%) of patients | Hypokalemia, CTCAE grade >=3 (Part A 70mg BD solution (N=5)): 0 Number (%) of patients | Lower respiratory tract infection, Any grade (Part A 70mg BD solution (N=5)): 1 (20.0) Number (%) of patients | Lower respiratory tract infection, CTCAE grade 1-2 (Part A 70mg BD solution (N=5)): 1 (20.0) Number (%) of patients | Lower respiratory tract infection, CTCAE grade >=3 (Part A 70mg BD solution (N=5)): 0 Number (%) of patients | Mucositis, Any grade (Part A 70mg BD solution (N=5)): 5 (100.0) Number (%) of patients | Mucositis, CTCAE grade 1-2 (Part A 70mg BD solution (N=5)): 3 (60.0) Number (%) of patients | Mucositis, CTCAE grade >=3 (Part A 70mg BD solution (N=5)): 2 (40.0) Number (%) of patients | Nausea, Any grade (Part A 70mg BD solution (N=5)): 3 (60.0) Number (%) of patients | Nausea, CTCAE grade 1-2 (Part A 70mg BD solution (N=5)): 3 (60.0) Number (%) of patients | Nausea, CTCAE grade >=3 (Part A 70mg BD solution (N=5)): 0 Number (%) of patients | Pruritus, Any grade (Part A 70mg BD solution (N=5)): 0 Number (%) of patients | Pruritus, CTCAE grade 1-2 (Part A 70mg BD solution (N=5)): 0 Number (%) of patients | Pruritus, CTCAE grade >=3 (Part A 70mg BD solution (N=5)): 0 Number (%) of patients | Rash, Any grade (Part A 70mg BD solution (N=5)): 1 (20.0) Number (%) of patients | Rash, CTCAE grade 1-2 (Part A 70mg BD solution (N=5)): 0 Number (%) of patients | Rash, CTCAE grade >=3 (Part A 70mg BD solution (N=5)): 1 (20.0) Number (%) of patients | Vomiting, Any grade (Part A 70mg BD solution (N=5)): 0 Number (%) of patients | Vomiting, CTCAE grade 1-2 (Part A 70mg BD solution (N=5)): 0 Number (%) of patients | Vomiting, CTCAE grade >=3 (Part A 70mg BD solution (N=5)): 0 Number (%) of patients | Anemia, Any grade (Part A 100mg BD solution (N=4)): 1 (25.0) Number (%) of patients | Anemia, CTCAE grade 1-2 (Part A 100mg BD solution (N=4)): 0 Number (%) of patients | Anemia, CTCAE grade >=3 (Part A 100mg BD solution (N=4)): 1 (25.0) Number (%) of patients | Back pain, Any grade (Part A 100mg BD solution (N=4)): 2 (50.0) Number (%) of patients | Back pain, CTCAE grade 1-2 (Part A 100mg BD solution (N=4)): 2 (50.0) Number (%) of patients | Back pain, CTCAE grade >=3 (Part A 100mg BD solution (N=4)): 0 Number (%) of patients | Constipation, Any grade (Part A 100mg BD solution (N=4)): 1 (25.0) Number (%) of patients | Constipation, CTCAE grade 1-2 (Part A 100mg BD solution (N=4)): 1 (25.0) Number (%) of patients | Constipation, CTCAE grade >=3 (Part A 100mg BD solution (N=4)): 0 Number (%) of patients | Cough, Any grade (Part A 100mg BD solution (N=4)): 0 Number (%) of patients | Cough, CTCAE grade 1-2 (Part A 100mg BD solution (N=4)): 0 Number (%) of patients | Cough, CTCAE grade >=3 (Part A 100mg BD solution (N=4)): 0 Number (%) of patients | Decreased appetite, Any grade (Part A 100mg BD solution (N=4)): 4 (100.0) Number (%) of patients | Decreased appetite, CTCAE grade 1-2 (Part A 100mg BD solution (N=4)): 4 (100.0) Number (%) of patients | Decreased appetite, CTCAE grade >=3 (Part A 100mg BD solution (N=4)): 0 Number (%) of patients | Diarrhea, Any grade (Part A 100mg BD solution (N=4)): 1 (25.0) Number (%) of patients | Diarrhea, CTCAE grade 1-2 (Part A 100mg BD solution (N=4)): 1 (25.0) Number (%) of patients | Diarrhea, CTCAE grade >=3 (Part A 100mg BD solution (N=4)): 0 Number (%) of patients | Dry mouth, Any grade (Part A 100mg BD solution (N=4)): 1 (25.0) Number (%) of patients | Dry mouth, CTCAE grade 1-2 (Part A 100mg BD solution (N=4)): 1 (25.0) Number (%) of patients | Dry mouth, CTCAE grade >=3 (Part A 100mg BD solution (N=4)): 0 Number (%) of patients | Dyspnea, Any grade (Part A 100mg BD solution (N=4)): 2 (50.0) Number (%) of patients | Dyspnea, CTCAE grade 1-2 (Part A 100mg BD solution (N=4)): 2 (50.0) Number (%) of patients | Dyspnea, CTCAE grade >=3 (Part A 100mg BD solution (N=4)): 0 Number (%) of patients | Fatigue, Any grade (Part A 100mg BD solution (N=4)): 4(100.0) Number (%) of patients | Fatigue, CTCAE grade 1-2 (Part A 100mg BD solution (N=4)): 2 (50.0) Number (%) of patients | Fatigue, CTCAE grade >=3 (Part A 100mg BD solution (N=4)): 2 (50.0) Number (%) of patients | Hypokalemia, Any grade (Part A 100mg BD solution (N=4)): 0 Number (%) of patients | Hypokalemia, CTCAE grade 1-2 (Part A 100mg BD solution (N=4)): 0 Number (%) of patients | Hypokalemia, CTCAE grade >=3 (Part A 100mg BD solution (N=4)): 0 Number (%) of patients | Lower respiratory tract infection, Any grade (Part A 100mg BD solution (N=4)): 0 Number (%) of patients | Lower respiratory tract infection, CTCAE grade 1-2 (Part A 100mg BD solution (N=4)): 0 Number (%) of patients | Lower respiratory tract infection, CTCAE grade >=3 (Part A 100mg BD solution (N=4)): 0 Number (%) of patients | Mucositis, Any grade (Part A 100mg BD solution (N=4)): 3 (75.0) Number (%) of patients | Mucositis, CTCAE grade 1-2 (Part A 100mg BD solution (N=4)): 3 (75.0) Number (%) of patients | Mucositis, CTCAE grade >=3 (Part A 100mg BD solution (N=4)): 0 Number (%) of patients | Nausea, Any grade (Part A 100mg BD solution (N=4)): 4 (100.0) Number (%) of patients | Nausea, CTCAE grade 1-2 (Part A 100mg BD solution (N=4)): 4 (100.0) Number (%) of patients | Nausea, CTCAE grade >=3 (Part A 100mg BD solution (N=4)): 0 Number (%) of patients | Pruritus, Any grade (Part A 100mg BD solution (N=4)): 0 Number (%) of patients | Pruritus, CTCAE grade 1-2 (Part A 100mg BD solution (N=4)): 0 Number (%) of patients | Pruritus, CTCAE grade >=3 (Part A 100mg BD solution (N=4)): 0 Number (%) of patients | Rash, Any grade (Part A 100mg BD solution (N=4)): 0 Number (%) of patients | Rash, CTCAE grade 1-2 (Part A 100mg BD solution (N=4)): 0 Number (%) of patients | Rash, CTCAE grade >=3 (Part A 100mg BD solution (N=4)): 0 Number (%) of patients | Vomiting, Any grade (Part A 100mg BD solution (N=4)): 4 (100.0) Number (%) of patients | Vomiting, CTCAE grade 1-2 (Part A 100mg BD solution (N=4)): 4 (100.0) Number (%) of patients | Vomiting, CTCAE grade >=3 (Part A 100mg BD solution (N=4)): 0 Number (%) of patients | grade 3 or 4 hyperglycemia (RP2D of 50 mg BD): no grade 3 or 4 hyperglycemia was seen | fatigue, most common AEs (at the MTD (50 mg BD)): 78% | fatigue, nausea and mucositis equal to or greater than grade 3, patients (at the MTD (50 mg BD)): 5% | nature of the dose limiting toxicities (dose range 25-100 mg): fatigue and mucositis | recommended phase II dose (RP2D) (oral, continuous twice daily dosing): 50 mg BD | maximally tolerated dose (MTD) (oral, continuous twice daily dosing, solution): 50 mg BD | pneumonitis (phase I study): no patients were diagnosed with pneumonitis; also recorded: no instances of pneumonitis | Anemia, Any grade (total (N=56)): 9 (16.1) Number (%) of patients | Anemia, CTCAE grade 1-2 (total (N=56)): 7 (12.5) Number (%) of patients | Anemia, CTCAE grade >=3 (total (N=56)): 2 (3.6) Number (%) of patients | Back pain, Any grade (total (N=56)): 9 (16.1) Number (%) of patients | Back pain, CTCAE grade 1-2 (total (N=56)): 8 (14.3) Number (%) of patients | Back pain, CTCAE grade >=3 (total (N=56)): 1 (1.8) Number (%) of patients | Constipation, Any grade (total (N=56)): 16 (28.6) Number (%) of patients | Constipation, CTCAE grade 1-2 (total (N=56)): 16 (28.6) Number (%) of patients | Constipation, CTCAE grade >=3 (total (N=56)): 0 Number (%) of patients | Cough, Any grade (total (N=56)): 12 (21.4) Number (%) of patients | Cough, CTCAE grade 1-2 (total (N=56)): 12 (21.4) Number (%) of patients | Cough, CTCAE grade >=3 (total (N=56)): 0 Number (%) of patients | Decreased appetite, Any grade (total (N=56)): 26 (46.4) Number (%) of patients | Decreased appetite, CTCAE grade 1-2 (total (N=56)): 26 (46.4) Number (%) of patients | Decreased appetite, CTCAE grade >=3 (total (N=56)): 0 Number (%) of patients | Diarrhea, Any grade (total (N=56)): 23 (41.1) Number (%) of patients | Diarrhea, CTCAE grade 1-2 (total (N=56)): 23 (41.1) Number (%) of patients | Diarrhea, CTCAE grade >=3 (total (N=56)): 0 Number (%) of patients | Dry mouth, Any grade (total (N=56)): 10 (17.9) Number (%) of patients | Dry mouth, CTCAE grade 1-2 (total (N=56)): 10 (17.9) Number (%) of patients | Dry mouth, CTCAE grade >=3 (total (N=56)): 0 Number (%) of patients | Dyspnea, Any grade (total (N=56)): 11 (19.6) Number (%) of patients | Dyspnea, CTCAE grade 1-2 (total (N=56)): 9 (16.1) Number (%) of patients | Dyspnea, CTCAE grade >=3 (total (N=56)): 2 (3.6) Number (%) of patients | Fatigue, Any grade (total (N=56)): 42 (75.0) Number (%) of patients | Fatigue, CTCAE grade 1-2 (total (N=56)): 36 (64.3) Number (%) of patients | Fatigue, CTCAE grade >=3 (total (N=56)): 6 (10.7) Number (%) of patients | Hypokalemia, Any grade (total (N=56)): 9 (16.1) Number (%) of patients | Hypokalemia, CTCAE grade 1-2 (total (N=56)): 8 (14.3) Number (%) of patients | Hypokalemia, CTCAE grade >=3 (total (N=56)): 1 (1.8) Number (%) of patients | Lower respiratory tract infection, Any grade (total (N=56)): 9 (16.1) Number (%) of patients | Lower respiratory tract infection, CTCAE grade 1-2 (total (N=56)): 7 (12.5) Number (%) of patients | Lower respiratory tract infection, CTCAE grade >=3 (total (N=56)): 2 (3.6) Number (%) of patients | Mucositis, Any grade (total (N=56)): 30 (53.6) Number (%) of patients | Mucositis, CTCAE grade 1-2 (total (N=56)): 27 (48.2) Number (%) of patients | Mucositis, CTCAE grade >=3 (total (N=56)): 3 (5.4) Number (%) of patients | Nausea, Any grade (total (N=56)): 30 (53.6) Number (%) of patients | Nausea, CTCAE grade 1-2 (total (N=56)): 28 (50.0) Number (%) of patients | Nausea, CTCAE grade >=3 (total (N=56)): 2 (3.6) Number (%) of patients | Pruritus, Any grade (total (N=56)): 13 (23.2) Number (%) of patients | Pruritus, CTCAE grade 1-2 (total (N=56)): 13 (23.2) Number (%) of patients | Pruritus, CTCAE grade >=3 (total (N=56)): 0 Number (%) of patients | Rash, CTCAE grade 1-2 (total (N=56)): 16 (28.6) Number (%) of patients | Rash, CTCAE grade >=3 (total (N=56)): 3 (5.4) Number (%) of patients | Vomiting, Any grade (total (N=56)): 16 (28.6) Number (%) of patients | Vomiting, CTCAE grade 1-2 (total (N=56)): 15 (26.8) Number (%) of patients | Vomiting, CTCAE grade >=3 (total (N=56)): 1 (1.8) Number (%) of patients
